The text below walks through data of publication PMC12632547 (bioRxiv, 2025).

In one data set the target is DPP-4 (Homo sapiens, UniProt P27487). Nature of the data set: In vitro protease stability: DPP-4 half-life assay. The data set is classed as in vitro ADME. To be noted: recombinant DPP-4 enzyme, pH 7.4.
A further data set deals with human GLP-1R (Homo sapiens, UniProt P43220). The data set is described as follows: In vitro GLP-1 receptor potency, cAMP signaling. The data set is classed as cell-based. The conditions noted are these: In vitro receptor activity cAMP assay (EC50), CRE-Luc reporter, BHK cells expressing human GLP-1R; mean ± SD, three independent experiments. For orientation: Cyclic AMP is a second messenger, typically raised through Gs and lowered through Gi signalling.

Data set [1] in a line: Murine plasma pharmacokinetic. The data set is classed as in vivo, male ICR mice.
Setting [2] is: male, ICR, mouse, plasma, iv, 1 mg kg-1.

Chain of DPP-4 (P27487 whole entry): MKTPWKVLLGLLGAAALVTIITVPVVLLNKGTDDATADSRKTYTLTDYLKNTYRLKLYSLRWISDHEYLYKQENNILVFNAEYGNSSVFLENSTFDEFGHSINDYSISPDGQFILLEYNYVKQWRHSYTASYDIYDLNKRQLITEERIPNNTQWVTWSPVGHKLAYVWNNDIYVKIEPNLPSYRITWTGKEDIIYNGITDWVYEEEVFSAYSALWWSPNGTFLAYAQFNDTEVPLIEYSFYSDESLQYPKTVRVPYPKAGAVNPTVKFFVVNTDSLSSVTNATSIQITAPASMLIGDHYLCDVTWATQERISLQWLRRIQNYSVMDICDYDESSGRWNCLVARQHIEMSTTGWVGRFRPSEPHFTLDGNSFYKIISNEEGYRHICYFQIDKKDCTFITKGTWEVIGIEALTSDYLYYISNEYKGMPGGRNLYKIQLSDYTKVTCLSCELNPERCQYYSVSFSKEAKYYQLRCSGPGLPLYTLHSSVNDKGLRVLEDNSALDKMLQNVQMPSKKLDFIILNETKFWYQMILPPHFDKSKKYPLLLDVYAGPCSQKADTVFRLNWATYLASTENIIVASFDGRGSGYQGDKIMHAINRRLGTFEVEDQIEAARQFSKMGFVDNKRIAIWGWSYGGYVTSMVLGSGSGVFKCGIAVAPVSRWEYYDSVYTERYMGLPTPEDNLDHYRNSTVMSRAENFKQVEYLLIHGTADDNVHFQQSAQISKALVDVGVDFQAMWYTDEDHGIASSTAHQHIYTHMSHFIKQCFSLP
Chain of human GLP-1R (P43220 24-463): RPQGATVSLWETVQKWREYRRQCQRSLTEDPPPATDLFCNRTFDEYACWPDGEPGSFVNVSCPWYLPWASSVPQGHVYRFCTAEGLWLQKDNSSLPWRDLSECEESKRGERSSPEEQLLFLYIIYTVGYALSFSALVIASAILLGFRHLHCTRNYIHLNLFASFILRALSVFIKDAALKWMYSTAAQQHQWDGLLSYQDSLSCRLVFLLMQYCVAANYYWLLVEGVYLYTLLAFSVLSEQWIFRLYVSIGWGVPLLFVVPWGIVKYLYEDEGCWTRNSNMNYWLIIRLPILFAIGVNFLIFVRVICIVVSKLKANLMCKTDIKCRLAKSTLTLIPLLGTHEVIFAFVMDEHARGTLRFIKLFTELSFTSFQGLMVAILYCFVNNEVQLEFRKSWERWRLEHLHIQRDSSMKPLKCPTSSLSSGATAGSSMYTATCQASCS

In the case of `CC[C@H](C)[C@H](NC(=O)[C@H](Cc1ccccc1)NC(=O)[C@H](CCC(=O)O)NC(=O)[C@H](CCCCN)NC(=O)[C@H](C)NC(=O)[C@H](C)NC(=O)[C@H](CCC(N)=O)NC(=O)CNC(=O)[C@H](CCC(=O)O)NC(=O)[C@H](CC(C)C)NC(=O)[C@H](Cc1ccc(O)cc1)NC(=O)[C@H](CO)NC(=O)[C@H](CO)NC(=O)[C@@H](NC(=O)[C@H](CC(=O)O)NC(=O)[C@H](CO)NC(=O)[C@@H](NC(=O)[C@H](Cc1ccccc1)NC(=O)[C@@H](NC(=O)CNC(=O)[C@H](CCC(=O)O)NC(=O)[C@H](C)NC(=O)N(N)Cc1c[nH]cn1)[C@@H](C)O)[C@@H](C)O)C(C)C)C(=O)N[C@@H](C)C(=O)N[C@@H](Cc1c[nH]c2ccccc12)C(=O)N[C@@H](CC(C)C)C(=O)N[C@H](C(=O)N[C@@H](CCCNC(=N)N)C(=O)NCC(=O)N[C@@H](CCCNC(=N)N)C(=O)NCC(=O)O)C(C)C` [AzaH7, [azaHis^7/R^34]-GLP-1(7–37)], the half-life (commonly the time in which the quantity being followed falls by half) at 0.1 mmol/l at DPP-4 was above 24 h. The 50% effective concentration (EC50) – broadly, the concentration at which the effect is half-maximal – on human GLP-1R was 0.743 ± 0.164 nM. Besides, in data set [1] (setting [2]), the clearance – broadly, the rate of elimination divided by the concentration – was around 7 mL/min/kg and the half-life is 1.67 ± 0.52 h. Further, the “plasma half-life” value in data set [1] (mice, single IV 1 mg kg^−1, plasma, hours converted to minutes) is around 1.67 h.
